{"source": "ChEMBL document CHEMBL1151415", "about": "“Plant anticancer agents. XXIV. Alkaloid constituents of Simaba multiflora” (1983)", "test_system": "KB", "assay": "Cytotoxicity against human KB cells", "type": "functional", "details": "for EC50: read-out: ED50 (the source's name)", "note": "The source made the active and inactive calls. The calls are words filed in the database; no cut-off is given here."}
{"smiles": "COn1c(=O)cc2c3cc(O)ccc3n3c(=O)ccc1c23", "values": [{"measurement": "Activity", "value": "inactive"}]}
{"smiles": "COn1c(=O)cc2c3ccccc3n3c(=O)ccc1c23", "values": [{"measurement": "Activity", "value": "inactive"}]}
{"smiles": "O=c1cc2c3ccccc3n3c(=O)ccc([nH]1)c23", "values": [{"measurement": "Activity", "value": "inactive"}]}
{"smiles": "COc1ccc2c(c1)c1ccnc3ccc(=O)n2c31", "values": [{"measurement": "EC50", "value": 2.1, "unit": "µg/mL"}]}
{"smiles": "O=c1ccc2nccc3c4cc(O)ccc4n1c23", "values": [{"measurement": "EC50", "value": 2.2, "unit": "µg/mL"}]}
